The nature of test [1]: Skeletal muscle mass and Mss51 expression in lean mice. Format: in vivo. The protocol:
The effects of P1229 on body composition and metabolism in lean mice were further assessed.
Additional assays were performed to assess the relative expression level of Mss51, a skeletal muscle-specific gene. Mss51 is a key target of myostatin signaling, with a role in fatty acid oxidation, glycolysis, and oxidative phosphorylation.

In another test the test system is DIO mice. The test is described as follows: Body composition in high fat diet mice, alone and in combination with incretin mimetics. Format: in vivo.
A further test has as its target GDF-8 (Homo sapiens, UniProt O14793). The test is described as follows: TGFβ-reporter HEK293 cell-based assay: GDF-8 neutralization. The settings on record: for IC50: read-out: CBA Potency GDF-8; for CBA potency GDF-8, potency fold-change: relative to reference (P1372 = 1). How it is done:
Potency testing by neutralization on cell-based assays. Characterization of the activin A, activin B, GDF-8, and GDF-11 inhibition potency (IC50) of the fusion proteins was performed using a cell-based reporter assay. TGFβ-reporter HEK293 cells were obtained from InvivoGen (San Diego, CA, cat. no. hkb-tgfb) and were maintained following the manufacturer's instructions. Briefly, cells were grown in high-glucose DMEM, containing 10% heat-inactivated FBS, 30 μg/mL blasticidin, 250 μg/mL hygromycin B, and 100 μg/mL zeocin (hereafter, “growth medium”). Once the cells reached 70-80% confluence, they were detached in growth medium by gently tapping on the flask. For all assays, cells were seeded in 96-well plates at a density of 20,000 cells per well in growth medium. Cells were left to attach for 10 minutes at room temperature (RT) prior to being transferred to a 37° C. incubator (5% CO2) overnight. The next day, treatments were prepared by combining the appropriate concentration of agent with activin A, activin B, GDF-8, or GDF-11 for 30 min at RT (shaking at 150 rpm). Treatments were conducted in high-glucose DMEM (serum-free and with no selection agents), and the final concentration of cytokine (ligand) was 0.3 nM. Growth medium was removed from the culture plates, and cells were treated with the appropriate mixes of fusion protein and cytokine. Treatment duration was for 18-22 h at 37° C. (5% CO2). All treatments were performed in technical duplicates and at least one or two independent experiments were conducted for each cytokine. At the end of the treatment period, supernatants were transferred to a new plate, and centrifuged at 300 RPM for 3 min. Forty microlitres of supernatant from each condition was transferred to a new plate, into which 180 μL of Quanti-Blue reagent (InvivoGen, cat. no. rep-qbs) was added. Quanti-Blue reagent was prepared following the manufacturer's instructions. Samples were incubated for 45 min at 37° C. At the end of the incubation, absorbance was read at 650 nm. The data were plotted in GraphPad Prism, which was used to calculate IC50 values as a non-linear regression.

The mark [2] stands for this setting: DIO mice, 21 days, P1229 10 mg/kg twice weekly.
Setting [3] is: DIO mice, 21 days, P1229 40 mg/kg twice weekly + calorie restriction.

Read-outs that look alike come from different tables or passages of the source.

Experimental for DIO mice: Experiments were performed in vivo to investigate the potential for additive or synergistic effects between exemplary ActRIIB-ECD polypeptide constructs and incretin mimetics.

Consider “P1229: hActRIIB L33W, 14 aa linker, IgG1-DL Fc; SEQ ID 211”, for which, in test [1] (25 mg/kg twice weekly, seven days), the “tibialis anterior and gastrocnemius weight” value is on record as “significantly increased”. Also, the “Mss51 expression in the tibialis muscle relative to vehicle” value in test [1] (5 or 25 mg/kg twice weekly, one week) was “dose-dependent decrease in Mss51 expression”. The “Body weight (% change from baseline)” value with DIO mice (DIO mice, 21 days s.c., P1307 20 mg/kg weekly, P1229 40 mg/kg twice weekly, semaglutide 40 μg/kg daily, tirzepatide 45 μg/kg daily, alone or combined) was “+11.1%”. Further, in the test on DIO mice (setting [2]), the “Body weight (% change from baseline)” value was “+7.7%”, the “Fat mass (% change from baseline)” value is on record as −1.6%, the “Lean mass (% change from baseline)” value is listed as “+10.6%” and the “Lean mass/fat mass ratio” value was 1.4. For the same molecule, in the test with DIO mice (setting [3]), the “Body weight (% change from baseline)” value is given as −12.8%, the “Fat mass (% change from baseline)” value was −33.7%, the “Lean mass (% change from baseline)” value is “+3.5%” and the “Lean mass/fat mass ratio” value came to 1.9. Further, the “visceral, epididymal, pericardial, peri-renal, and retroperitoneal white adipose tissue weights” value with DIO mice (DIO mice, D21) is recorded as “not significantly affected”. The “white adipose tissue weights” value with DIO mice (DIO mice, D21, P1229 with caloric restriction) was “significantly decreased visceral, pericardial, and peri-renal (but not epididymal and retroperitoneal) white adipose tissue weights”. For the same molecule, the “gastrocnemius and tibialis anterior weights” value in the test on DIO mice (DIO mice, D21, P1229 with or without caloric restriction) was “significantly increased”. Further, in the test with DIO mice (as E44, NMR), the “Fat mass (% change from baseline)” value was “+2.7%”, the “Lean mass (% change from baseline)” value is recorded as “+15.1%” and the “Lean mass/fat mass ratio” value worked out at 1.3.

B1: P1372: hActRIIB L33W, 14 aa linker, IgG1 YTE-DL Fc; SEQ ID 231 (protein)
chain: ETRECIYYNANWELERTNQSGLERCEGEQDKRWHCYASWRNSSGTIELVKKGCWLDDFNCYDRQECVATEENPQVYFCCCEGNFCNERFTHLPEAGGPEVTYEPPPTGGGGSGGGGSGGGGTHTCPPCPAPELLGGPSVFLFPPKPKDTLYITREPEVTCVVVDVSHEDPEVKFNWYVDGVEVHNAKTKPREEQYNSTYRVVSVLTVLHQDWLNGKEYKCKVSNKALPAPIEKTISKAKGQPREPQVYTLPPSRDELTKNQVSLTCLVKGFYPSDIAVEWESNGQPENNYKTTPPVLDSDGSFFLYSKLTVDKSRWQQGNVFSCSVMHEALHNHYTQKSLSLSPG
As to B1, the “CBA potency GDF-8, fold-change vs reference” value in the test with GDF-8 (D 0), with GDF-8 (D 7 after storage at 2-8° C.) and with GDF-8 (D 7 after storage at room temperature) was 1 (ref) in each case. Also, the IC50 turned out to be 0.27 nM in the test with GDF-8 (D 0); 0.22 nM with GDF-8 (D 7, 2-8° C.); 0.24 nM in the test with GDF-8 (D 7, RT); 0.35 nM with GDF-8 (D 14, 2-8° C.); 0.36 nM with GDF-8 (D 14, RT); 0.45 nM with GDF-8 (D 28, 2-8° C.). The IC50 amounted to 0.44 nM with GDF-8 (D 28, RT); 0.34 nM with GDF-8 (D 56, 2-8° C.); 0.36 nM with GDF-8 (D 56, RT). Moreover, the “CBA potency GDF-8, potency fold-change” value in the test with GDF-8 (D 28, storage at 2-8° C.) is given as 1 (ref) fold; in the test with GDF-8 (D 28, storage at room temperature), 1 (ref) fold.

(Values after patent US20260193317A1, “COMBINATION THERAPY WITH ACTRIIB RECEPTOR VARIANTS AND GLP-1 AGONISTS” (35PHARMA Inc., priority 2023, published 2026).)
